“And” between values parts separate entries of the source, which are not always exact repeats. Equal entries are not always repeated.
Columns and labels:
[1] = logP(o/w), octanol/water partition; conditions: 1:1 mixture of water and 1-octanol, fluorescence detection or liquid scintillation; for logP: 1-octanol/water, LogP(o/w)
Experimental: 9 Membrane permeability of the 3-NBD-BA and logP(o/w) values. […] The lipophilic and hydrophilic phases were separated by centrifugation and both phases were analyzed by fluorescence detection or liquid scintillation, respectively.
All NBD-BA were diluted to 1 pM in STB, and […] and emission spectra were measured from 300 to 650 nm (Spark Multimode Microplate, Tecan, Männedorf, Switzerland). […] The [^3H]-CA was generously provided by Prof. Dr. Alan Hofmann, University of California (San Diego, United States).

HEK293 cells = experiment: Fluorescence microscopy screening: accumulation independent from control conditions; assay type: cell-based, human; conditions: 50 μM, 10 min, all HEK293 cell lines, with and without sodium
Experimental: (§1) Then, all cell lines were cultivated in chamber slides and were grown to confluence to screen for carrier-mediated cellular accumulation of the synthesized NBD-BA. Incubation with the NBD-BA was done in the presence of sodium (+Na^+) as well as in the absence of sodium (-Na^+, negative control) for all SLC10 carriers, namely NTCP, ASBT, mNtcp, mAsbt, and SOAT. For OATP1B1 and OATP1B3, nontransfected HEK293 cells were used as negative control.
(§2) 4 Screening of the cellular uptake of 3-NBD-BA in HEK293 (HEK) cells stably expressing the human carriers NTCP, ASBT, SOAT, OATP1B1, and OATP1B3, or the mouse carriers mNtcp and mAsbt. For the SLC10 carriers, sodium-free conditions (-Na^+) were used as control. For the OATPs, experiments in non-carrier-expressing HEK293 cells (HEK) served as control. All cell lines were incubated for 10 min with the indicated 3-NBD-BA at 50 μM concentration. Then, cells were washed with PBS and subjected to fluorescence microscopy. Identical microscope settings were used for all images. Scale bar: 75 μm.

human ASBT = molecular target: T1, human ASBT (Homo sapiens, UniProt Q12908); experiment: Transport kinetics of conjugated 3-NBD-BA (concentration-dependent uptake); assay type: cell-based; set-up: stably transfected with the full open reading frames of human NTCP, ASBT, SOAT, OATP1B1, and OATP1B3; expressed in transfected cells; conditions: for Transport rates via ASBT across the entire concentration range: ASBT-HEK293, 10 min, +Na+ vs -Na+, not considered biologically meaningful
T1 sequence (Q12908 1-348): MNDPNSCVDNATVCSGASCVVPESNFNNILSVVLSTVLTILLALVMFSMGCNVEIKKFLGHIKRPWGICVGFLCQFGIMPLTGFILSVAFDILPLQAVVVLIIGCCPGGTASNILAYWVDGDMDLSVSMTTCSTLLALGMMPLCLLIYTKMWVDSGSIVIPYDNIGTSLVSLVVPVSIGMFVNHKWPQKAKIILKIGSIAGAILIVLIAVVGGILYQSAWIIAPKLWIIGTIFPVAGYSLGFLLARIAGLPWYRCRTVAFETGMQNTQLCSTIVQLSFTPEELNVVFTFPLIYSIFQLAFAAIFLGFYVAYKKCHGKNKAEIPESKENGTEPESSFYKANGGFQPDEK
Experimental: (§3) In a first step, the time-dependent transport of all conjugated NBD-BA was analyzed. […] Based on these findings, an uptake phase of 10 min was selected as the most practical for subsequent kinetic transport measurements. […] In contrast, for ASBT, reliable carrier-specific concentration-dependent transport rates and K m values could only be determined for 3α-NBD-GCA (16d). The transport rates for 3β-NBD-TCA (14a), 3β-NBD-TCDCA (14b), 3β-NBD-GCA (16a), and 3α-NBD-TCA (14d) were at ≤ 2 across the entire concentration range and were therefore not considered biologically meaningful.
(§4) 7 ASBT and mAsbt transport kinetics for conjugated 3-NBD-BA. Concentration-dependent uptake of the indicated NBD-coupled BA was analyzed in HEK293 cells stably expressing human ASBT or mouse mAsbt at increasing substrate concentrations. Control experiments were performed in the absence of sodium (-Na^+). Uptake was analyzed for 10 min at 37 °C with transport buffer containing the indicated 3-NBD-BA. Afterward, the transport medium was removed, and each cell monolayer was washed and processed for fluorescence detection. Specific uptake was calculated by subtracting the nonspecific uptake in the absence of sodium (-Na^+, open symbols) from the uptake in the presence of sodium (+Na^+, closed symbols) and is shown by dotted lines. Values represent means ± SD of quadruplicate determinations. Michaelis Menten K m values were calculated by nonlinear regression analysis based on the specific uptake data. For ASBT, reliable specific uptake data could only be determined for 3α-NBD-GCA (16d).

mouse mAsbt [2] = molecular target: T2, mouse mAsbt (Mus musculus, UniProt P70172); experiment: as above; assay type: cell-based; set-up: stably transfected with the full open reading frames of human NTCP, ASBT, SOAT, OATP1B1, and OATP1B3 as well as mouse mNtcp and mAsbt; expressed in transfected cells; conditions: mAsbt-HEK293, 10 min uptake, 37 °C, specific (Na+-dependent) uptake
T2 sequence (P70172 1-348): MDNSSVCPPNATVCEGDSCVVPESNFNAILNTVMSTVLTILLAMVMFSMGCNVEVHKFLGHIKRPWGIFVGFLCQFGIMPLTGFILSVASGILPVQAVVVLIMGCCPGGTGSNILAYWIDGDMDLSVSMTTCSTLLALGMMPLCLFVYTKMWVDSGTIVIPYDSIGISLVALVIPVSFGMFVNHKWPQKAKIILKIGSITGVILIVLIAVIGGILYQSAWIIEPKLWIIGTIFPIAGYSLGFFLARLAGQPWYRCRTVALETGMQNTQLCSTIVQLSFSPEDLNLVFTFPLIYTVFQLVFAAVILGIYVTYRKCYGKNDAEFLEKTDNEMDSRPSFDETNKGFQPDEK
Experimental: as §3, §4

mouse mAsbt [3] = molecular target: T2, mouse mAsbt; experiment: Fluorescence microscopy screening of cellular uptake of 3-NBD-BA; assay type: cell-based; set-up: stably transfected with the full open reading frames of human NTCP, ASBT, SOAT, OATP1B1, and OATP1B3 as well as mouse mNtcp and mAsbt; expressed in transfected cells; conditions: 50 μM, 10 min, +Na+ vs -Na+
Experimental: as §1, §2

Q: With `C[C@H](CCC(=O)O)[C@H]1CC[C@H]2[C@@H]3[C@H](O)C[C@@H]4C[C@@H](Nc5ccc([N+](=O)[O-])c6nonc56)CC[C@]4(C)[C@H]3C[C@H](O)[C@]12C` [6a, 7α,12α-Dihydroxy-3β-[(7-nitro-2,1,3-benzoxadiazol-4-yl)amino]-5β-cholan-24-oate] as the compound, how does the logP [1] read?
A: > 2

Q: And the “Cellular NBD-fluorescence irrespective of carrier/control conditions (microscopy)” value (HEK293 cells)?
A: significant increase in cellular NBD-fluorescence, independent from the control conditions

Q: With `C[C@H](CCC(=O)NCCS(=O)(=O)[O-])[C@H]1CC[C@H]2[C@@H]3[C@H](O)C[C@@H]4C[C@@H](Nc5ccc([N+](=O)[O-])c6nonc56)CC[C@]4(C)[C@H]3C[C@H](O)[C@]12C.[Na+]` [14a] as the compound, how does the logP [1] read?
A: 0.14

Q: And the “Transport rates via ASBT across the entire concentration range” value (human ASBT)?
A: ≤ 2

Q: What about the “K m mAsbt” value (mouse mAsbt [2]) of the same compound?
A: 20.0 µM and 20 µM

Q: And the “Cellular NBD-fluorescence, mAsbt-HEK293 (microscopy)” value (mouse mAsbt [3])?
A: significant increase in cellular NBD-fluorescence compared to the negative control

Q: Which “Cellular NBD-fluorescence irrespective of carrier/control conditions (microscopy)” value (HEK293 cells) does the source give for “7α-Hydroxy-3β-[(7-nitro-2,1,3-benzoxadiazol-4-yl)amino]-5β-cholan-24-oate [6b]” here?
A: significant increase in cellular NBD-fluorescence, independent from the control conditions

Q: Which results are given for `C[C@H](CCC(=O)NCC(=O)O)[C@H]1CC[C@H]2[C@@H]3[C@H](O)C[C@@H]4C[C@@H](Nc5ccc([N+](=O)[O-])c6nonc56)CC[C@]4(C)[C@H]3C[C@H](O)[C@]12C` [16a]?
A: logP [1]: -0.01; Transport rates via ASBT across the entire concentration range (human ASBT): ≤ 2; K m mAsbt (mouse mAsbt [2]): 3.5 µM; Cellular NBD-fluorescence, mAsbt-HEK293 (microscopy) (mouse mAsbt [3]): significant increase in cellular NBD-fluorescence compared to the negative control

Q: Which “LogP(o/w)” value [1] does the source give for “12α-Hydroxy-3β-[(7-nitro-2,1,3-benzoxadiazol-4-yl)amino]-5β-cholan-24-oate [6c]” here?
A: 2.147

Q: What about the “Cellular NBD-fluorescence irrespective of carrier/control conditions (microscopy)” value (HEK293 cells) of the same compound?
A: significant increase in cellular NBD-fluorescence, independent from the control conditions

Q: Which results are given for `C[C@H](CCC(=O)NCCS(=O)(=O)[O-])[C@H]1CC[C@H]2[C@@H]3[C@H](O)C[C@@H]4C[C@H](Nc5ccc([N+](=O)[O-])c6nonc56)CC[C@]4(C)[C@H]3C[C@H](O)[C@]12C.[Na+]` [14d]?
A: logP [1]: 0.03; LogP(o/w) [1]: 0.027; Transport rates via ASBT across the entire concentration range (human ASBT): ≤ 2; K m mAsbt (mouse mAsbt [2]): 11.1 µM; Cellular NBD-fluorescence, mAsbt-HEK293 (microscopy) (mouse mAsbt [3]): significant increase in cellular NBD-fluorescence compared to the negative control

Q: Which logP [1] does the source give for `C[C@H](CCC(=O)NCC(=O)O)[C@H]1CC[C@H]2[C@@H]3[C@H](O)C[C@@H]4C[C@H](Nc5ccc([N+](=O)[O-])c6nonc56)CC[C@]4(C)[C@H]3C[C@H](O)[C@]12C` [16d] here?
A: 0.462

Q: What about the “K m ASBT” value (human ASBT; ASBT-HEK293, 10 min uptake, 37 °C, specific (Na+-dependent) uptake) of the same compound?
A: 14.5 µM

Q: And the “K m mAsbt” value (mouse mAsbt [2])?
A: 14.5 µM

Q: What about the “Cellular NBD-fluorescence, mAsbt-HEK293 (microscopy)” value (mouse mAsbt [3]) of the same compound?
A: significant increase in cellular NBD-fluorescence compared to the negative control

Q: With `C[C@H](CCC(=O)O)[C@H]1CC[C@H]2[C@@H]3[C@H](O)C[C@@H]4C[C@H](Nc5ccc([N+](=O)[O-])c6nonc56)CC[C@]4(C)[C@H]3C[C@H](O)[C@]12C` [6d, 7α,12α-Dihydroxy-3α-[(7-nitro-2,1,3-benzoxadiazol-4-yl)amino]-5β-cholan-24-oate] as the compound, how does the logP [1] read?
A: 2.8

Q: And the “Cellular NBD-fluorescence irrespective of carrier/control conditions (microscopy)” value (HEK293 cells)?
A: significant increase in cellular NBD-fluorescence, independent from the control conditions
